What was measured:
Type in all cases: biochemical
[1] = molecular target: T1, purified LasB protein from P. aeruginosa (Pseudomonas aeruginosa, UniProt P14756); assay: Fluorometric assay to determine Ki (Assay 1); conditions: Ki (μM) Assay 1, purified LasB, substrate Abz-Ala-Gly-Leu-Ala-p-Nitro-Benzyl-Amide 250 μM, Ki calculated from IC50; inhibitor 0.006 to 200 μM
T1 construct: purchased Merck or Charles River Laboratories
Method in brief: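 Purified LasB (10 to 140 ng/ml) with 250 μM Abz-Ala-Gly-Leu-Ala-p-nitrobenzylamide in 50 mM Tris-HCl pH 7.4, 2.5 mM CaCl2, 0.01% Triton X100; hydrolysis read by fluorescence (Ex 340/Em 415 nm) over 30 min at 37° C. Inhibitor 2-fold series, 0.006–200 μM (Assay 1) or 0.0016–200 μM (Assay 2); IC50 converted to Ki via Ki=IC50/(1+[S]/Km), Km=214 μM.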

[2] = molecular target: T2, LasB elastase activity in dialysed supernatant from P. aeruginosa strain PA01 (Pseudomonas aeruginosa, UniProt P14756); assay: Elastin Congo Red assay to determine % inhibition (Assay 1); conditions: read-out: Elastin hydrolysis % inhibition @ 50/25 μM inhibitor concentration Assay 1
T2 construct: uses as source of enzyme dialysed supernatant from P. aeruginosa; endogenous in cells; host or cells: P. aeruginosa strain PA01 culture supernatant, filtered and dialysed
Method in brief: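 Enzyme source: PA01 culture supernatant (19 h growth), filtered and dialysed into 50 mM Tris pH 7.4, 2.5 mM CaCl2. Mixed 1:1 with Elastin Congo Red (20 mg/mL) plus 0.01% Triton X-100 and compound (routinely 50 and 25 μM), 24 h at 37 °C shaking. Dye release at OD520 gives % inhibition versus DMSO.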

[3] = molecular target: T1, purified LasB protein from P. aeruginosa; assay: Fluorometric assay to determine Ki (Assay 2)
Experimental: (§1) Experiments were therefore conducted (1) to measure the potency of inhibition of compounds of the invention against purified Pseudomonas aeruginosa LasB enzyme and also experiments were conducted (2) to measure the ability of compounds of the invention to inhibit LasB-catalysed elastin degradation. The first assay uses a commercial fluorescent synthetic peptide and purified LasB enzyme. The LasB hydrolysis kinetics are measured allowing the determination of the IC50 and Ki of the inhibitors; the second is a more physiological assay using dialysed Pseudomonas aeruginosa supernatant as source of enzyme, plus its natural substrate Elastin. It is an “end point assay” that determines the percentage of LasB inhibition by each compound for one particular time point and inhibitor concentration. Technical details are described below:
This assay uses commercially available substrate (Abz-Ala-Gly-Leu-Ala-p-Nitro-Benzyl-Amide (Ex: 340 nm, Em: 415 nm) from Peptide International) and purified LasB protein from P. aeruginosa (provided by Merck or Charles River Laboratories). It is performed to determine LasB elastase activity and assess compound inhibition in 96-well plate format. Some compounds of Formula (I) were assessed using the method of Assay 1 (described below). Other compounds of Formula (I) were assessed using the alternative but equivalent method of Assay 2 (described below).
Method: 10 to 140 ng/ml purified LasB is incubated with 250 μM Abz-Ala-Gly-Leu-Ala-p-Nitro-Benzyl-Amide in 50 mM Tris-HCl pH 7.4, 2.5 mM CaCl2), 0.01% of Triton X100 at 37° C. LasB activity (corresponding to fluorescence emission induced by substrate hydrolysis) is measured over 30 min at 37° C. with a fluorescence plate reader such as the Perkin Elmer Envision or similar. Different range of inhibitor concentrations are routinely assessed depending of inhibitor potency from 0.006 to 200 μM (Assay 1; 2-fold dilutions series) or from 0.0016 to 200 μM (Assay 2; 2-fold dilutions series) in order to determine IC50.
The equation used to calculate the Ki from IC50 is: Ki=IC50/(1+([S]/Km)) where [S]=250 μM and Km=214 μM.

[4] = molecular target: T2, LasB elastase activity in dialysed supernatant from P. aeruginosa strain PA01; assay: Elastin Congo Red assay to determine % inhibition (Assay 2); conditions: read-out: Elastin hydrolysis % inhibition @ 50/25 μM inhibitor concentration Assay 2
Experimental: as §1
The Elastin assay uses as source of enzyme dialysed supernatant from P. aeruginosa and the elastin congo red as substrate. The natural LasB substrate, elastin, is complexed with the congo red dye (Elastin Congo Red, ECR). The elastolysis activity from the culture supernatant will degrade elastin and release the congo red dye into the supernatant. This red dye release can be measured with a spectrophotometer. Some compounds of Formula (I) were assessed using the method of Assay 1 (described below). Other compounds of Formula (I) were assessed using the alternative but equivalent method of Assay 2 (described below).
Method (Assay 2): To determine LasB elastase activity and assess compound inhibition, an overnight culture of P. aeruginosa strain PA01 is diluted in LB medium. After reaching an OD600 nm of 0.6, this culture is diluted and incubated for additional 18-24 h in a shaking incubator. Culture supernatants are recovered by centrifugation and filtrated through a […] filter. These supernatants are dialysed (filtration molecules <20 kDa) into a 50 mM Tris-HCl pH 7.4, 2.5 mM CaCl2 solution at 4° C. under agitation for 24 h. Supernatant dialysed is then mixed volume/volume with the ECR suspension (20 mg/mL of ECR in 100 mM Tris-HCl pH 7.4 buffer supplemented with 1 mM CaCl2) supplemented with TritonX 100 (final concentration of 0.01%) in presence of DMSO (positive control) and/or different concentrations of compound (routinely […]). As a negative control, the dialysed supernatant is replaced by Tris-HCl solution (50 mM Tris-HCl pH 7.4, 2.5 mM CaCl2). The mixed reaction is then incubated overnight in a 37° C. shaking incubator. The reaction supernatant is recovered by centrifugation and the release of congo-red is measured by its absorbance at 495 nm (OD495 nm).
Percentage inhibition is determined using the following equation: ((OD495 nm value of positive control−OD495 nm value of negative control)−(OD495 nm value of treated supernatant−OD495 nm value of negative control))/(OD495 nm value of positive control−OD495 nm value of negative control)×100.

T2 sequence (P14756 198-498): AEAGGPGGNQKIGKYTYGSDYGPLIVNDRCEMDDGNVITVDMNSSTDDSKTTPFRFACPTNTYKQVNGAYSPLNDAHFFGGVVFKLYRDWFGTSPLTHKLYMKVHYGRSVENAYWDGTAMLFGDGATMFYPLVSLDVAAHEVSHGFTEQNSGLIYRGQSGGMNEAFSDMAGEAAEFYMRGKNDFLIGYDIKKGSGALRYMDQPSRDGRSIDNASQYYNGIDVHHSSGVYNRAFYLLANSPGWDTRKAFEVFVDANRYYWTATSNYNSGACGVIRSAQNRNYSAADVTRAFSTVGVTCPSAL
T1 sequence (P14756 198-498): as above

SMILES | Ki [1] [µM] | inhibition at 50 µM [2] [%] | Ki [3] [nM] | inhibition at 50 µM [4] [%]
NC1CN(c2ccc3nc(CNC(=O)C4(CC(=O)O)Cc5ccccc5C4)sc3c2)C1 [Example 100, 2-[2-[[6-(3-aminoazetidin-1-yl)-1,3-benzothiazol-2-yl]methylcarbamoyl]indan-2-yl]acetic acid] | < 0.3 | > 60 | – | –
N[C@H]1CCN(c2ccc3nc(CNC(=O)C4(CC(=O)O)Cc5ccccc5C4)sc3c2)C1 [Example 101, 2-[2-[[6-[(3 S)-3-aminopyrrolidin-1-yl]-1,3-benzothiazol-2-yl]methylcarbamoyl]indan-2-yl]acetic acid] | 0.3 to 2 | > 60 | – | –
N[C@@H]1CCN(c2ccc3nc(CNC(=O)C4(CC(=O)O)Cc5ccccc5C4)sc3c2)C1 [Example 102, 2-[2-[[6-[(3R)-3-aminopyrrolidin-1-yl]-1,3-benzothiazol-2-yl]methylcarbamoyl]indan-2-yl]acetic acid] | < 0.3 | > 60 | – | –
N[C@H]1CCN(c2ccc3sc(CNC(=O)C4(CC(=O)O)Cc5ccccc5C4)nc3c2)C1 [Example 103, 2-[2-[[5-[(3 S)-3-aminopyrrolidin-1-yl]-1,3-benzothiazol-2-yl]methylcarbamoyl]indan-2-yl]acetic acid] | 0.3 to 2 | > 60 | – | –
N[C@@H]1CCN(c2ccc3sc(CNC(=O)C4(CC(=O)O)Cc5ccccc5C4)nc3c2)C1 [Example 104, 2-[2-[[5-[(3R)-3-aminopyrrolidin-1-yl]-1,3-benzothiazol-2-yl]methylcarbamoyl]indan-2-yl]acetic acid] | 0.3 to 2 | > 60 | – | –
CN(C)CCNc1ccc2nc(CNC(=O)C3(CC(=O)O)Cc4ccccc4C3)sc2c1 [Example 105, 2-[2-[[6-[2-(dimethylamino)ethylamino]-1,3-benzothiazol-2-yl]methylcarbamoyl]indan-2-yl]acetic acid] | 0.3 to 2 | 30 to 60 | – | –
CN1CCN(c2ccc3sc(CNC(=O)C4(CC(=O)O)Cc5ccccc5C4)nc3c2)CC1 [Example 106, 2-[2-[[5-(4-methylpiperazin-1-yl)-1,3-benzothiazol-2-yl]methylcarbamoyl]indan-2-yl]acetic acid] | < 0.3 | > 60 | – | –
O=C(O)CC1(C(=O)NCc2nc3ccc(O)cc3s2)Cc2ccccc2C1 [Example 107, 2-[2-[(6-hydroxy-1,3-benzothiazol-2-yl)methylcarbamoyl]indan-2-yl]acetic acid] | – | – | < 300 | > 60
CCOc1ccc2nc(CNC(=O)C3(CC(=O)O)Cc4ccccc4C3)sc2c1 [Example 108, 2-[2-[(6-ethoxy-1,3-benzothiazol-2-yl)methylcarbamoyl]indan-2-yl]acetic acid] | – | – | < 300 | > 60
O=C(O)CC1(C(=O)NCc2nc3ccc(OCCO)cc3s2)Cc2ccccc2C1 [Example 109, 2-[2-[[6-(2-hydroxyethoxy)-1,3-benzothiazol-2-yl]methylcarbamoyl]indan-2-yl]acetic acid] | – | – | < 300 | > 60
CN(C)CCOc1ccc2nc(CNC(=O)C3(CC(=O)O)Cc4ccccc4C3)sc2c1 [Example 110, 2-[2-[[6-[2-(dimethylamino)ethoxy]-1,3-benzothiazol-2-yl]methylcarbamoyl]indan-2-yl]acetic acid] | 0.3 to 2 | 30 to 60 | – | –
C[N+](C)(C)CCOc1ccc2nc(CNC(=O)C3(CC(=O)[O-])Cc4ccccc4C3)sc2c1 [Example 111, 2-[2-[[6-[2-(trimethylammonio)ethoxy]-1,3-benzothiazol-2-yl]methylcarbamoyl]indan-2-yl]acetate] | 0.3 to 2 | 30 to 60 | – | –
CN(C)CCOc1ccc2sc(CNC(=O)C3(CC(=O)O)Cc4ccccc4C3)nc2c1 [Example 112, 2-[2-[[5-[2-(dimethylamino)ethoxy]-1,3-benzothiazol-2-yl]methylcarbamoyl]indan-2-yl]acetic acid] | < 0.3 | > 60 | – | –
C[N+](C)(C)CCOc1ccc2sc(CNC(=O)C3(CC(=O)[O-])Cc4ccccc4C3)nc2c1 [Example 113, 2-[2-[[5-[2-(trimethylammonio)ethoxy]-1,3-benzothiazol-2-yl]methylcarbamoyl]indan-2-yl]acetate] | 0.3 to 2 | > 60 | – | –
C[N+]1(C)CCC(OC(=O)[C@H](Cc2c[nH]c3ccccc23)NC(=O)C2(CC(=O)O)Cc3ccccc3C2)CC1 [Example 116, (S)-2-(2-((1-((1,1-dimethylpiperidin-1-ium-4-yl)oxy)-3-(1H-indol-3-yl)-1-oxopropan-2-yl)carbamoyl)-2,3-dihydro-1H-inden-2-yl)acetate] | 0.3 to 2 | > 60 | – | –
Cc1nnc([C@H](Cc2c[nH]c3ccccc23)NC(=O)C2(CC(=O)O)Cc3ccccc3C2)o1 [Example 117, (S)-2-(2-((2-(1H-indol-3-yl)-1-(5-methyl-1,3,4-oxadiazol-2-yl)ethyl)carbamoyl)-2,3-dihydro-1H-inden-2-yl)acetic acid] | 0.3 to 2 | > 60 | – | –
NCc1nnc([C@H](Cc2c[nH]c3ccccc23)NC(=O)C2(CC(=O)O)Cc3ccccc3C2)o1 [Example 118, (S)-2-(2-((1-(5-(aminomethyl)-1,3,4-oxadiazol-2-yl)-2-(1H-indol-3-yl)ethyl)carbamoyl)-2,3-dihydro-1H-inden-2-yl)acetic acid] | < 0.3 | > 60 | – | –
O=C(O)CC1(C(=O)NCc2nc3cnccc3s2)Cc2ccccc2C1 [Example 127, 2-[2-(thiazolo[4,5-c]pyridin-2-ylmethylcarbamoyl)indan-2-yl]acetic acid] | 0.3 to 2 | > 60 | – | –
CN1CCc2nc(CNC(=O)C3(CC(=O)O)Cc4ccccc4C3)sc2C1 [Example 129, 2-[2-[(5-methyl-6,7-dihydro-4H-thiazolo[5,4-c]pyridin-2-yl)methylcarbamoyl]indan-2-yl]acetic acid] | 0.3 to 2 | 30 to 60 | – | –
O=C(O)CC1(C(=O)NCc2nc3cc(O)ccc3s2)Cc2ccccc2C1 [Example 130, 2-[2-[(5-hydroxy-1,3-benzothiazol-2-yl)methylcarbamoyl]indan-2-yl]acetic acid] | < 0.3 | > 60 | – | –

Reference: US11000511B2, “Chemical compounds as antibiotics” (priority 2017, dated 2021)
